Series [1] in a line: Cytotoxicity against human HMEC-1 cells assessed as cell growth inhibition measured after 72 hrs by MTT assay. Type of series: toxicity, cell-based.
The subject of a further series is A549. The series can be described thus: Cytotoxicity against human A549 cells assessed as cell growth inhibition measured after 72 hrs by MTT assay. Format: functional, cell-based. As to conditions: A549, 72 h. In general terms: Tetrazolium assays rely on reduction of a dye to a coloured formazan, in cell work by metabolically active cells.
The subject of another series is MDA-MB-231. The series can be described thus: Cytotoxicity against human MDA-MB-231 cells assessed as cell growth inhibition measured after 72 hrs by MTT assay. Format: functional, cell-based. As to conditions: MDA-MB-231, 72 h.
Another series has as its system HepG2. Description: Cytotoxicity against human HepG2 cells assessed as cell growth inhibition measured after 72 hrs by MTT assay. As to conditions: HepG2, 72 h. Format: functional, cell-based.
Another series concerns K562. Description: Cytotoxicity against human K562 cells assessed as cell growth inhibition measured after 72 hrs by MTT assay. Type of series: functional, cell-based. As to conditions: K562, 72 h.
For another series, the system named is HCT-116. Description: Cytotoxicity against human HCT-116 cells assessed as cell growth inhibition measured after 72 hrs by MTT assay. The following applies: HCT-116, 72 h. Format: functional, cell-based.
In series [2] the target is T1, 5-hydroxytryptamine receptor 1A (Rattus norvegicus) (UniProt P19327).
T1 sequence (whole entry): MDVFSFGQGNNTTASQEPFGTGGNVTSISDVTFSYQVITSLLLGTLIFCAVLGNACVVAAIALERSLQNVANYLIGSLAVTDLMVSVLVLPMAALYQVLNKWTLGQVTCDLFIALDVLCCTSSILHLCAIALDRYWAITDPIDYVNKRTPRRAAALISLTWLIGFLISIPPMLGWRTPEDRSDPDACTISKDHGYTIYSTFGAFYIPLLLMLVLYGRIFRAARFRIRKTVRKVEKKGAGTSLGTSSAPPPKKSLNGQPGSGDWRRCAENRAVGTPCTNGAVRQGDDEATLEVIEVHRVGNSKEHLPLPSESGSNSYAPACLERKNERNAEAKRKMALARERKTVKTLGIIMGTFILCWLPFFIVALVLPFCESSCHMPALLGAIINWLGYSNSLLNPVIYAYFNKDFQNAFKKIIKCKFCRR
Description: Agonist activity at Sprague-Dawley rat hippocampal membrane 5-HT1A receptor assessed as stimulation of [35S]GTPgammaS binding by measuring maximal efficacy measured after 90 mins by scintillation counter analysis relative to control. Format: functional, cell membranes. As to conditions: Hippocampus, filed as agonist. Background: GTPγS is a poorly hydrolysed GTP analogue; its binding reports G protein activation.

In general, IC50 refers to the concentration at which inhibition is half-maximal. Broadly, the Emax is the maximal effect, on the per cent scale that the assay sets.

Take `COc1cccc2c1C(=O)c1c(O)c3c(c(O)c1C2=O)C[C@@](O)(C(=O)CO)C[C@@H]3O[C@H]1C[C@H](N)[C@H](O)[C@H](C)O1` [DOXORUBICIN]: the IC50 at 72 h in series [1] came out at 500 nM. Also, the IC50 in the series with A549 amounted to 240 nM; with MDA-MB-231, 120 nM; in the series with HepG2 it was 290 nM; in the series with K562, 210 nM; with HCT-116 it was 960 nM.

Turning to `CCCN(CCC)C1CCc2cccc(O)c2C1` (configuration not stated), the Emax in series [2] was determined as 148%.

(Values after ChEMBL document CHEMBL5329202, “New aryl-/heteroarylpiperazine derivatives of 1,7-dimethyl-8,9-diphenyl-4-azatricyclo[5.2.1.02,6]dec-8-ene-3,5,10-trione: Synthesis and preliminary studies of biological activities” (Bioorg Med Chem, 2023).)
